Results reported in patent publication US20100062046A1, “POLYMORPHS OF NICOTINIC INTERMEDIATES” (priority 2006, published 2010).

How the values were obtained:
Type in all cases: physicochemical
[1] = Hygroscopicity of crystalline forms; details: crystalline solid
[2] = Relative stability of crystalline forms, studies in dichloromethane, ethyl acetate, methanol and toluene; details: compound II
Experimental: Form B was obtained mainly from fast evaporations of ethyl acetate and methyl ethyl ketone, and from a solvent/antisolvent. […] Form A has a melting point of ˜177° C. and Form B has a melting point of ˜170° C.

[3] = Storage of Form C at high humidities; details: stored at high humidities
From the text: and is observed when Form C is stored at high humidities. […] The lot used to generate this X-ray powder diffraction and Raman data may contain residual compound IV Form C.

O=C(N1CC2CC(C1)c1cc([N+](=O)[O-])c([N+](=O)[O-])cc12)C(F)(F)F [Compound II Form A, 1,5-Methano-1H-3-benzazepine-2,3,4,5-tetrahydro-7,8-dinitro-3-(trifluoroacetyl)]
hygroscopicity [1]: non-hygroscopic | relative stability of crystalline forms ([2]; ambient temperature and 60° C., dichloromethane, ethyl acetate, methanol, toluene): more stable than Form B

O=C(N1CC2CC(C1)c1cc([N+](=O)[O-])c([N+](=O)[O-])cc12)C(F)(F)F [Compound II Form B, 1,5-Methano-1H-3-benzazepine-2,3,4,5-tetrahydro-7,8-dinitro-3-(trifluoroacetyl)]
form conversion upon heating ([2]; upon heating): converts to Form A upon heating

O=C(N1CC2CC(C1)c1cc3nccnc3cc12)C(F)(F)F [Compound III Form A, 6,10-Methano-6H-pyrazino[2,3-h][3]benzazepine,7,8,9,10-tetrahydro-8-(trifluoroacetyl)]
hygroscopicity [1]: non-hygroscopic

c1cnc2cc3c(cc2n1)C1CNCC3C1 [Compound IV Form C]
formation of N-carboxyvarenicline adduct on storage [3]: observed
